Patent publication US20010055573A1, “Delivery systems for active ingredients including sunscreen actives and methods of making same” (Shamrock Technologies, priority 1999, published 2001)

Assay: Solubility of the sunscreen active in the preferred non-polar solvents
Assay type: physicochemical
Settings: ethylferulate by itself, without lubricating wax as cosolvent
Text: Thus, this embodiment of the present invention solves a significant problem which the prior art has heretofore been unable to overcome without emulsification, namely, the poor solubility of ethylferulate and other polar solid organic sunscreen actives in non-polar solvents, which causes difficulties in formulating sunscreen products in non-emulsified systems.

- solubility in the preferred solvents: not soluble to any significant extent
SMILES: CCOC(=O)/C=C/c1ccc(O)c(OC)c1 [ethylferulate, ethyl ester of ferulic acid]
